Experiments:
Assay type in all cases: cell-based, human
[1] = test system: cord blood-derived CD34+CD90+ cells; assay: Ex vivo expansion culture of cord blood CD34+ cells with chromatin modifying agents, flow cytometry for CD34/CD90; settings: for cells co-expressing CD34+ and CD90+ / fold expansion of CD34+CD90+ cells / expansion of CD34+CD90+ cells (in words): 9 days of culture; for cells co-expressing CD34+ and CD90+: cytokines (SCF, Flt3-ligand, TPO, IL-3) plus CMA, FIG. 1A; for fold expansion of CD34+CD90+ cells: cytokines plus CMA; for fold expansion of CD34+CD90+ cells / expansion of CD34+CD90+ cells (in words): FIG. 1B; for CD34+CD90+ (%): mean ± SEM of three independent experiments
Source text: Freshly collected human CB was obtained from the New York Blood Center (New York, N.Y.) according to Institutional Review Board guidelines. Low density CB cells (<1.077 g/ml) were obtained by density centrifugation on Ficoll-Paque PLUS (GE Healthcare Bio-Sciences AB, Uppsala, Sweden), from which CD34^+ cells were immunomagnetically isolated by the MACS CD34 progenitor isolation kit (Miltenyi Biotech, Inc., Auburn, Calif.) as described in Araki et al., 2009, Exp Hematol. 37: 1084-1095). The purity of isolated CD34^+ cells routinely ranged from 90-99%.
CD34^+ cell expansion culture with or without CMA was carried out as described (Araki et al., 2009, Id.; Araki et al. 2006, Exp Hematol. 34: 140-149; Araki et al, 2007, Blood 109: 3570-3578.). All other HDAC inhibitors including 1 mM VPA (Sigma), TSA (5 ng/mL), NA (5 mM) or 5 μM of Suberoylanilide hydroxamic acid (SAHA; BioVision, Inc. Mountain View, Calif.) was added twice at 0 hr and after changing media at 48 hrs of culture. HDAC inhibitors were added only once (48 hr) when used in combination with a DNMT inhibitor as described (Araki et al., 2009, Id.; Araki et al., 2006, Id.; Himburg et al., 2010, Nat. Med. 16: 475-482).
Flow cytometric analysis was carried out as described (Araki et al., 2009, Id.; Araki et al. 2006, Id.; Araki et al, 2007, Id.). All antibodies were purchased from BD Bioscience (San Jose, Calif.). All analyses were paired with the corresponding matched isotype control and at least 10,000 live cells were acquired for each analysis (CellQuest software, Becton Dickinson).
In order to compare the effects of various chromatin modifying agents (CMAs) on the degree of expansion of cord blood-derived, primitive subpopulation of CD34^+ cells, valproic acid (VPA), trichostatin A (TSA), nicotinic acid (NA), suberoylanilide hydroxamic acid (SAHA) or 5-aza-2′-deoxycytidine (5azaD) as single agents or in combination was tested in vitro. The results of fluorescence-activated cell sorting experiments performed on cord blood-derived CD34^+/CD90^+ cells treated with CMA agents is shown in FIG. 1A.

[2] = test system: cobblestone area-forming cells (CAFC); assay: Cobblestone area-forming cell (CAFC) assay, limiting dilution on M2-10B4 stromal cells; settings: limiting dilution; mean ± SEM of three independent experiments
Experimental: (§1) Colony-forming cell (CFC) were assayed by plating 5×10^2 cells per dish in semisolid media and were counted after 14 days as described (Araki et al., 2009, Id.). The number of cobble stone area-forming cell (CAFC) was quantitated in primary and expanded CD34+ cells by plating in limiting dilution onto irradiated M2-10B4 stromal cells as described (Araki et al., 2009, Id.; Conneally et al., 1997, Proc. Natl. Acad. Sci. USA. 94: 9836-9841; Taswell, 1981, J. Immunol. 126: 1614-1619).
(§2) In order to determine the a correlation between expansion of CD34^+CD90^+ cells and their functional potential as pluripotent hematopoietic stem cells, in vitro functional assays were performed, including assessment of colony-forming cells (CFC), a short-term assay, and cobblestone-area forming cells (CAFC), a long-term assay.

[3] = test system: colony-forming cells (CFC); assay: Colony-forming cell (CFC) assay of CMA expanded CB cells; settings: mean ± SEM of three independent experiments
Experimental: as §1, §2

Compound	cells co-expressing CD34+ and CD90+ [1]	fold expansion of CD34+CD90+ cells [1]	expansion of CD34+CD90+ cells (in words) [1]	CAFC Frequency/10^4 cells [2]	CD34+CD90+ (%) [1]	CFC PE (%) (Colony Forming Cell Plating Efficiency) [3]
O=C(O)c1cccnc1 [NA, nicotinic acid]	6%	2.1 fold	did not promote the expansion	–	–	–
CC(/C=C/C(=O)NO)=C\[C@@H](C)C(=O)c1ccc(N(C)C)cc1 [TSA, trichostatin A]	5%	7.8±3.5 fold	–	6.39 ± 4.81 /10^4 cells	5.60 ± 0.29^¤ %	4.97 ± 0.39%
Nc1ncn([C@H]2C[C@H](O)[C@@H](CO)O2)c(=O)n1 [5azaD, 5-aza-2′-deoxycytidine]	2%	1.2±0.5 fold	–	21.73 ± 14.57 /10^4 cells	2.33 ± 0.60%	8.70 ± 1.37%
O=C(CCCCCCC(=O)Nc1ccccc1)NO [SAHA, suberoylanilide hydroxamic acid]	3%	1.2 fold	did not promote the expansion	–	–	–
